Assay results from patent US10131652B2, “Pyrimidinyloxy benzene derivatives as herbicides” (E. I. DU PONT DE NEMOURS AND COMPANY, priority 2014, dated 2018).

What was measured:
Assay type in all cases: in vivo
[1] = tested on: small-flower umbrella sedge (Cyperus difformis); assay: Test C flooded paddy test plant response; details: Flood, 250 g ai/ha; scale of 0 to 100 where 0 is no effect and 100 is complete control; 13 to 15 days
Outline: (§1)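 Plants grown to the 2-leaf stage; pots flooded to 3 cm above soil, test compounds applied directly to paddy water, depth maintained throughout. Greenhouse for 13 to 15 days, then visual rating versus controls on a 0–100 scale (0 no effect, 100 complete control).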

[2] = tested on: ducksalad (Heteranthera limosa); assay: Test C flooded paddy test plant response; details: Flood, 250 g ai/ha; scale of 0 to 100 where 0 is no effect and 100 is complete control; 13 to 15 days
Outline: as §1

rice (Oryza sativa) = assay: Test C flooded paddy test plant response; details: Flood, 250 g ai/ha; scale of 0 to 100 where 0 is no effect and 100 is complete control; 13 to 15 days
Outline: as §1

[3] = tested on: barnyardgrass (Echinochloa crus-galli); assay: Test C flooded paddy test plant response; details: Flood, 250 g ai/ha; scale of 0 to 100 where 0 is no effect and 100 is complete control; 13 to 15 days
Outline: as §1

corn (Zea mays) = assay: Test B pre-/postemergence plant response
Outline: (§2)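 Ratings reflect visual injury versus untreated controls, from 0 for no effect to 100 for complete control, assessed roughly 10 days after treatment. Formulation: non-phytotoxic solvent mix with surfactant; pre- and postemergence sprays on plants grown in loam soil and sand.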

[4] = tested on: velvetleaf (Abutilon theophrasti); assay: Test B pre-/postemergence plant response
Outline: as §2

[5] = tested on: wheat (Triticum aestivum); assay: Test B pre-/postemergence plant response
Outline: as §2

[6] = tested on: pigweed (Amaranthus retroflexus); assay: Test B pre-/postemergence plant response
Outline: as §2

[7] = tested on: morningglory (Ipomoea spp.); assay: Test B pre-/postemergence plant response
Outline: as §2

[8] = tested on: large (Lg) crabgrass (Digitaria sanguinalis); assay: Test B pre-/postemergence plant response
Outline: as §2

[9] = tested on: giant foxtail (Setaria faberii); assay: Test B pre-/postemergence plant response
Outline: as §2

[10] = tested on: barnyardgrass (Echinochloa crus-galli); assay: Test B pre-/postemergence plant response
Outline: as §2

[11] = 125 g ai/ha, postemergence, 0 to 100 scale, 0 no effect, 100 complete control
[12] = Postemergence, 500 g ai/ha, 0 to 100 scale (0 no effect, 100 complete control)
[13] = Preemergence, 125 g ai/ha, 0 to 100 scale where 0 is no effect and 100 is complete control
[14] = Preemergence, 500 g ai/ha, 0 to 100 scale where 0 is no effect and 100 is complete control
[15] = Preemergence, 125 g ai/ha, 0 to 100 scale (0 no effect, 100 complete control)

Cn1nc(C(F)(F)F)cc1-c1ccccc1Oc1ncc(Cl)cn1 [Compound 29]
Sedge, Umbrella plant response rating [1]: 0
Ducksalad plant response rating [2]: 0
Rice plant response rating (rice (Oryza sativa)): 0
Barnyardgrass plant response rating [3]: 0
Plant response rating, Corn (corn (Zea mays); [11]): 0
Plant response rating, Corn (corn (Zea mays); [12]): 0
Plant response rating, Corn (corn (Zea mays); [13]): 0
Plant response rating, Corn (corn (Zea mays); [14]): 0
Plant response rating, Velvetleaf [4, 11]: 0
Plant response rating, Velvetleaf [4, 12]: 0
Plant response rating, Velvetleaf [4, 13]: 0
Plant response rating, Velvetleaf [4, 14]: 0
Plant response rating, Wheat [5, 11]: 0
Plant response rating, Wheat [5, 12]: 0
Plant response rating, Wheat [5, 13]: 0
Plant response rating, Wheat [5, 14]: 0
Plant response rating, Pigweed [6, 11]: 0
Plant response rating, Pigweed [6, 12]: 10
Plant response rating, Pigweed [6, 13]: 20
Plant response rating, Pigweed [6, 14]: 50
Plant response rating, Morningglory [7, 11]: 0
Plant response rating, Morningglory [7, 12]: 0
Plant response rating, Morningglory [7, 13]: 0
Plant response rating, Morningglory [7, 14]: 0
Plant response rating, Crabgrass, Large [8, 11]: 0
Plant response rating, Crabgrass, Large [8, 12]: 10
Plant response rating, Crabgrass, Large [8, 13]: 10
Plant response rating, Crabgrass, Large [8, 14]: 30
Plant response rating, Foxtail, Giant [9, 11]: 0
Plant response rating, Foxtail, Giant [9, 12]: 0
Plant response rating, Foxtail, Giant [9, 13]: 0
Plant response rating, Foxtail, Giant [9, 14]: 10
Plant response rating, Barnyardgrass [10, 11]: 0
Plant response rating, Barnyardgrass [10, 12]: 0
Plant response rating, Barnyardgrass [10, 13]: 0
Plant response rating, Barnyardgrass [10, 14]: 0

Clc1cnc(Oc2ccccc2-c2nccs2)nc1 [Compound 199]
Sedge, Umbrella plant response rating [1]: 80
Ducksalad plant response rating [2]: 0
Rice plant response rating (rice (Oryza sativa)): 0
Barnyardgrass plant response rating [3]: 0
Plant response rating, Corn (corn (Zea mays); [11]): 0
Plant response rating, Corn (corn (Zea mays); [12]): 0
Corn plant response rating (corn (Zea mays); [15]): 0
Plant response rating, Corn (corn (Zea mays); [14]): 0
Plant response rating, Velvetleaf [4, 11]: 0
Plant response rating, Velvetleaf [4, 12]: 10
Velvetleaf plant response rating [4, 15]: 0
Plant response rating, Velvetleaf [4, 14]: 10
Plant response rating, Wheat [5, 11]: 0
Plant response rating, Wheat [5, 12]: 0
Wheat plant response rating [5, 15]: 0
Plant response rating, Wheat [5, 14]: 0
Plant response rating, Pigweed [6, 11]: 10
Plant response rating, Pigweed [6, 12]: 30
Pigweed plant response rating [6, 15]: 0
Plant response rating, Pigweed [6, 14]: 30
Plant response rating, Morningglory [7, 11]: 0
Plant response rating, Morningglory [7, 12]: 10
Morningglory plant response rating [7, 15]: 0
Plant response rating, Morningglory [7, 14]: 0
Plant response rating, Crabgrass, Large [8, 11]: 0
Plant response rating, Crabgrass, Large [8, 12]: 10
Crabgrass, Large plant response rating [8, 15]: 0
Plant response rating, Crabgrass, Large [8, 14]: 10
Plant response rating, Foxtail, Giant [9, 11]: 0
Plant response rating, Foxtail, Giant [9, 12]: 0
Foxtail, Giant plant response rating [9, 15]: 0
Plant response rating, Foxtail, Giant [9, 14]: 0
Plant response rating, Barnyardgrass [10, 11]: 0
Plant response rating, Barnyardgrass [10, 12]: 0
Barnyardgrass plant response rating [10, 15]: 0
Plant response rating, Barnyardgrass [10, 14]: 0

Cc1noc(C)c1-c1c(C#N)cccc1Oc1ncc(Cl)cn1 [Compound 134]
Sedge, Umbrella plant response rating [1]: 75
Ducksalad plant response rating [2]: 40
Rice plant response rating (rice (Oryza sativa)): 0
Barnyardgrass plant response rating [3]: 0
Plant response rating, Corn (corn (Zea mays); [11]): 10
Plant response rating, Corn (corn (Zea mays); [12]): 80
Corn plant response rating (corn (Zea mays); [15]): 20
Plant response rating, Corn (corn (Zea mays); [14]): 60
Plant response rating, Velvetleaf [4, 11]: 40
Plant response rating, Velvetleaf [4, 12]: 90
Velvetleaf plant response rating [4, 15]: 40
Plant response rating, Velvetleaf [4, 14]: 100
Plant response rating, Wheat [5, 11]: 10
Plant response rating, Wheat [5, 12]: 30
Wheat plant response rating [5, 15]: 20
Plant response rating, Wheat [5, 14]: 20
Plant response rating, Pigweed [6, 11]: 60
Plant response rating, Pigweed [6, 12]: 100
Pigweed plant response rating [6, 15]: 100
Plant response rating, Pigweed [6, 14]: 100
Plant response rating, Morningglory [7, 11]: 10
Plant response rating, Morningglory [7, 12]: 90
Morningglory plant response rating [7, 15]: 10
Plant response rating, Morningglory [7, 14]: 80
Plant response rating, Crabgrass, Large [8, 11]: 10
Plant response rating, Crabgrass, Large [8, 12]: 100
Crabgrass, Large plant response rating [8, 15]: 100
Plant response rating, Crabgrass, Large [8, 14]: 100
Plant response rating, Foxtail, Giant [9, 11]: 10
Plant response rating, Foxtail, Giant [9, 12]: 90
Foxtail, Giant plant response rating [9, 15]: 90
Plant response rating, Foxtail, Giant [9, 14]: 100
Plant response rating, Barnyardgrass [10, 11]: 20
Plant response rating, Barnyardgrass [10, 12]: 90
Barnyardgrass plant response rating [10, 15]: 70
Plant response rating, Barnyardgrass [10, 14]: 90
